Measurements reported in the NIST ThermoML archive (doi:10.1016/j.tca.2016.03.002).
± gives the expanded uncertainty stated by the source.

Test: refractive index (Na D-line) (dimensionless); xn = mol fraction of the nth substance listed
Conditions: 100 kPa, Liquid, Standard Abbe refractometry

NC1CCCCC1 [cyclohexylamine] + CO
refractive index
Conditions | 293.15 K | 298.15 K | 303.15 K
x2 = 0 | 1.45934 ± 0.0044 | 1.45663 ± 0.0044 | 1.45325 ± 0.0044
x2 = 0.0702 | 1.45717 ± 0.0044 | 1.45462 ± 0.0044 | 1.45212 ± 0.0044
x2 = 0.1177 | 1.45561 ± 0.0044 | 1.45309 ± 0.0044 | 1.45064 ± 0.0044
x2 = 0.2006 | 1.45245 ± 0.0044 | 1.45014 ± 0.0044 | 1.44761 ± 0.0044
x2 = 0.3049 | 1.44774 ± 0.0044 | 1.44542 ± 0.0043 | 1.4431 ± 0.0043
x2 = 0.4041 | 1.44199 ± 0.0043 | 1.43954 ± 0.0043 | 1.43715 ± 0.0043
x2 = 0.4986 | 1.43478 ± 0.0043 | 1.43243 ± 0.0043 | 1.42999 ± 0.0043
x2 = 0.5392 | 1.43072 ± 0.0043 | 1.42852 ± 0.0043 | 1.42613 ± 0.0043
x2 = 0.597 | 1.42424 ± 0.0043 | 1.42256 ± 0.0043 | 1.42012 ± 0.0043
x2 = 0.6609 | 1.41597 ± 0.0043 | 1.41393 ± 0.0043 | 1.41198 ± 0.0043
x2 = 0.7024 | 1.40945 ± 0.0043 | 1.40787 ± 0.0042 | 1.40569 ± 0.0042
x2 = 0.746 | – | – | 1.39807 ± 0.0042
x2 = 0.7999 | 1.39047 ± 0.0042 | 1.38877 ± 0.0042 | 1.38677 ± 0.0042
x2 = 0.8535 | – | 1.3759 ± 0.0042 | –
x2 = 0.8572 | 1.37655 ± 0.0042 | 1.37494 ± 0.0042 | 1.37247 ± 0.0042
x2 = 0.8985 | 1.36493 ± 0.0041 | 1.36313 ± 0.0041 | –
x2 = 0.9032 | 1.36365 ± 0.0041 | – | 1.35944 ± 0.0041
x2 = 0.949 | 1.34836 ± 0.0041 | 1.34625 ± 0.0041 | 1.3444 ± 0.0041
